Where a name gives a salt, the structure may show the parent alone. Read-outs that look alike come from different tables or passages of the source.

A word on the AUC: it is the area under the concentration-time curve, a measure of exposure. A word on the NOAEL: it is the highest tested level that showed no adverse finding.

A short description of series [1]: Pharmacokinetics, rat IV study. Particulars: male Sprague Dawley rats, plasma, analyte as labelled; for AUC: male, Sprague Dawley, rat, iv.
Series [2] is described as follows: Pharmacokinetics, monkey IV study. Particulars: male, cynomolgus monkey, plasma, 5 mg/kg, Compound W dosed IV 5 mg/kg in D5W, label = analyte.
The subject of the next series is Staphylococcus aureus. The series is described as follows: microbe, parasite or virus in culture. It is filed as cell-based.
In series [3] the test system is Staphlococcus epidermidis. The series is described as follows: Gyrase MIC, microdilution broth method (Protocol 1). It counts as cell-based, Staphylococcus epidermidis. The settings on record: 35 isolates tested. For orientation: Broth dilution looks for growth in wells or tubes with falling amounts of substance.
In a further series the test system is Bacillus cereus. The series is described as above. It is filed as cell-based.
A further series deals with Klebsiella pneumoniae. The series is described as follows: Gyrase MIC against Gram negatives, microdilution broth method (Protocol 2). It is filed as cell-based.
The test system of another series is Clostridium difficile. The series is described as follows: Gyrase MIC, agar dilution method (Protocol 3). It counts as cell-based. A general note: In agar dilution, organisms are placed on agar that contains the substance at set levels.
Series [4] has as its system Bacteroides and Parabacter spp. Description: Gyrase MIC, agar dilution method (Protocol 3). It is filed as cell-based. Particulars: 26 isolates tested.
In a further series the test system is Clostridium perfringens. The series is described as follows: microbe, parasite or virus in culture. It is filed as cell-based.
The test system of a further series is Fusobacterium spp. Description: Gyrase MIC, agar dilution method (Protocol 3). It is filed as cell-based. Particulars: 16 isolates tested.
The next series deals with Peptostreptococcus spp. The series is described as follows: Gyrase MIC, agar dilution method (Protocol 3). It is filed as cell-based. The settings on record: 11 isolates tested.
For a further series, the system named is Prevotella spp. Description: Gyrase MIC, agar dilution method (Protocol 3). It is filed as cell-based. The settings on record: 13 isolates tested.
Series [5] can be described thus: Seven-day oral (gavage) toxicity and toxicokinetics study in rats. It counts as in vivo, Crl:CD(SD) rats. Particulars: for AUC: oral gavage. The source says: Crl:CD(SD) rats were obtained from Charles River Laboratories of Stone Ridge, N.Y. The animals were laboratory bred and experimentally naïve. Rats were chosen because they are a species that is commonly used for nonclinical toxicity evaluations.
Forty rats (20 noncannulated males and 20 males with jugular vein cannulas) were ordered. From these animals, 15 noncannulated males and 15 cannulated males were used. Animals were as uniform in age as possible. The rats were prepubertal to young adult, approximately 9 weeks of age at initiation of dosing. Their supplier-calculated birth date was retained in the study records. The weight range for the animals at the time of allocation to groups was 218.5-306.3 g.
Animals received the test article or vehicle by oral gavage for 7 consecutive days and were terminated the day following completion of dosing. The first day of dosing was designated as Day 1 of the study. The animals were evaluated for changes in clinical signs, body weight, and other parameters as described below.
The vehicle and test article were administered by oral gavage once daily for 7 consecutive days at a dose volume of 10 mL/kg body weight for Group A and Groups B-D, respectively. The test article and vehicle were administered by oral gavage twice daily, approximately 8 hours apart, for 7 consecutive days at a dose volume of 10 mL/kg body weight for Group E and Group F, respectively. The actual volume administered to each animal was calculated and adjusted based on the most recent body weight of each animal.
The postdosing observations made during treatment occurred at the following times based on Cmax/Tmax for the two compounds from previous studies:
Prior to start of dosing, body weights were measured for randomization on Day 1. During the treatment, body weights were measured on Day 1 and Day 7. In addition, fasted body weights were measured prior to necropsy for calculation of organ/body weight ratios.
Throughout the study, food consumption was measured daily starting 3 days prior to start of dosing.
Blood samples for evaluation of hematology, coagulation, and serum chemistry parameters were collected from all animals from the retro-orbital plexus (under CO2/O2 anesthesia, for the main study animals) or jugular vein cannula (for the toxicokinetic animals) prior to necropsy. Due to residual heparin used to keep the cannulas patent for the toxicokinetic animals, coagulation samples from these rats, were not able to be analyzed. The animals were fasted overnight prior to blood collection. On the day of blood collection for clinical pathology analyses, the animals were not necropsied until after the blood was collected and the samples judged to be acceptable by the clinical pathology group.
An appropriate amount of blood was collected in EDTA-containing tubes. The whole blood samples were analyzed for the parameters indicated below in Table 11.
An appropriate amount of blood was collected in tubes containing sodium citrate and then centrifuged to obtain plasma for the determination of prothrombin time (PT) and activated partial thromboplastin time (APTT).
An appropriate amount of blood was collected in tubes without anticoagulant. The sample was allowed to clot and then was centrifuged to obtain serum. The serum was analyzed for the parameters indicated below in Table 12.
On the 1st and 7th day of dosing, blood samples (approximately 0.5 mL/sample) were collected from the jugular vein cannula for all toxicokinetic animals at the timepoints listed below into K3EDTA-containing tubes. […] Prior to each collection, a small sample of blood (with heparin blocking solution) was removed from the cannula and discarded. A new syringe was placed on the cannula, and the protocol-required sample was taken. The syringe with the blood sample was removed, and a new syringe with saline attached to the cannula. Blood volume was replaced with an equal volume of saline and then blocking solution placed in the cannula. […]

For another series, the system named is Enterococcus faecium. The series is described as follows: Gyrase MIC, microdilution broth method (Protocol 1).
In another series the test system is Enterococcus faecalis. Described as above. The settings on record: ATCC29212.
Setting [6] is: Compound W 1 mg/kg single IV bolus in D5W.
[7] abbreviates: Compound W 5 mg/kg single IV bolus in D5W.
[8] abbreviates: 1 mg/kg, AUC, Compound W 1 mg/kg single IV bolus in D5W.
[9] abbreviates: 1 mg/kg, AUCextrap, Compound W 1 mg/kg single IV bolus in D5W.
[10] abbreviates: 5 mg/kg, AUC, Compound W 5 mg/kg single IV bolus in D5W.
[11] abbreviates: 5 mg/kg, AUCextrap, Compound W 5 mg/kg single IV bolus in D5W.
Where [12] appears, read: 300 mg/kg twice a day, compared to controls treated twice a day.
Setting [13] is: male, Crl:CD(SD), rat, in vivo, po, 7 days.

Turning to `CCNC(=O)Nc1nc2cc(-c3cnc(C(C)(C)O)nc3)c(F)c([C@H]3CCCO3)c2[nH]1` [Compound 23, 1-ethyl-3-[6-fluoro-5-[2-(1-hydroxy-1-methyl-ethyl)pyrimidin-5-yl]-7-[(2R)-tetrahydrofuran-2-yl]-1H-benzimidazol-2-yl]urea], the values for the Cl_obs in series [1] (setting [6]) and in series [1] (setting [7]) were 54.9 mL/min/kg and 27.3 mL/min/kg, respectively. In addition, the values for the Vss_obs in series [1] (setting [6]) and in series [1] (setting [7]) were 3.8 L/kg and 4.08 L/kg, respectively. Also, the AUC in series [1] (setting [8]) came out at 306 ng·h/mL; in series [1] (setting [9]), 310 ng·h/mL; in series [1] (setting [10]), 3040 ng·h/mL; in series [1] (setting [11]), 3060 ng·h/mL; in [2] (AUCextrap), 3810 ng·h/mL.
As to `CCNC(=O)Nc1nc2cc(-c3cnc(C(C)(C)O)nc3)c(F)c([C@H]3CCCO3)c2[nH]1` [Compound 23A, methanesulfonic acid salt of 1-ethyl-3-[6-fluoro-5-[2-(1-hydroxy-1-methyl-ethyl)pyrimidin-5-yl]-7-[(2R)-tetrahydrofuran-2-yl]-1H-benzimidazol-2-yl]urea], the MIC90 in the series on Staphylococcus aureus (67 isolates tested, Protocol 1) was 0.03 µg/mL; in series [3] (Staphylococcus epidermidis), 0.03 µg/mL; in the series with Klebsiella pneumoniae (Klebsiella pneumoniae, 12 isolates tested) it was above 8 µg/mL; in the series with Clostridium difficile (Clostridioides difficile, Clostridium difficile, 16 isolates tested), 0.25 µg/mL; in [4] it was 16 µg/mL; in the series with Clostridium perfringens, 0.5 µg/mL. For the same molecule, the MIC90 with Fusobacterium spp. is above 16 µg/mL; with Peptostreptococcus spp. it was above 16 µg/mL; in the series with Prevotella spp., 16 µg/mL; against Enterococcus faecium, 0.12 µg/mL. Besides, the MIC with Staphylococcus aureus (ATCC29213, Staphylococcus aureus ATCC 29213, Protocol 1, read-out: MIC) was found to be 0.021 µg/mL; in the series with Staphylococcus aureus (ATCC29213, Staphylococcus aureus ATCC 29213 GyrB T173I, Protocol 1), 0.3 µg/mL; in the series on Staphylococcus aureus (ATCC29213, Staphylococcus aureus ATCC 29213 with Mouse Serum, Protocol 1, read-out: MIC), 0.5 µg/mL; in the series with Staphylococcus aureus (ATCC29213, Staphylococcus aureus ATCC 29213 with Rat Serum, Protocol 1, read-out: MIC), 0.18 µg/mL; against Bacillus cereus (ATCC10987, Bacillus cereus ATCC 10987), 0.031 µg/mL; against Bacillus cereus (ATCC14579, Bacillus cereus ATCC 14579), 0.031 µg/mL. Moreover, the MIC turned out to be 16 µg/mL in the series on Klebsiella pneumoniae (ATCC700603, Klebsiella pneumoniae ATCC 700603); 12 µg/mL against Klebsiella pneumoniae (ATCCBAA1705, Klebsiella pneumoniae ATCC BAA-1705); 0.38 µg/mL with Clostridium difficile (Clostridioides difficile, ATCCBAA1382, Clostridium difficile ATCC BAA-1382); 0.11 µg/mL against Enterococcus faecium (ATCC49624, Enterococcus faecium ATCC 49624, Protocol 1); 0.11 µg/mL in the series with Enterococcus faecium (ATCC49624, Enterococcus faecium ATCC 49624 with Laked Horse Blood, Protocol 1). The “MIC Range” value in series [3] is 0.008 to 0.03 µg/mL; in the series on Clostridium difficile (Clostridium difficile, 16 isolates tested), 0.06-4^ μg/ml; in series [4], 0.12 to 16 µg/mL; against Clostridium perfringens (12 isolates tested, Protocol 3) it was 0.12 to 0.5 µg/mL; against Prevotella spp. it was 0.06 to 16 µg/mL; in the series on Enterococcus faecium (33 isolates tested, Protocol 1), 0.003 to 0.25 µg/mL. The “mean ALT” value in series [5] (setting [12]) is “statistically higher”. Besides, in series [5] (setting [12]), the “mean AST” value is listed as “statistically higher”. Moreover, the Mean food consumption result in series [5] (Compound 13 once daily 100 or 200 mg/kg, Compound 23A twice daily 300 mg/kg, not considered adverse) is on record as “reduced during different intervals of the study”. For the same molecule, the NOAEL at 7 days in [5] (Crl:CD(SD), rat, in vivo, po, 300 mg/kg, male rats, twice a day for 7 days orally via gavage, read-out: NOAEL (No-Observable-Adverse-Effect-Level)) is 300 mg/kg. The AUC in [5] (Crl:CD(SD), rat, in vivo, male rats, 100 mg/kg once a day for 7 days) worked out at 82000 ng·h/mL; in series [5] (Crl:CD(SD), rat, in vivo, male rats, 300 mg/kg twice a day for 7 days), 291000 ng·h/mL. In addition, the “adverse observations / mean body weight” value in [5] (male rats, 7 days oral gavage) was “No adverse observations or effects on mean body weight”. The histopathological findings result in series [5] (male rats, any dose regimen) was “No test article-related histopathological findings”. Further, in series [5] (male rats, toxicokinetics), the “exposures for different dosage levels” value is “dose related”. For the same molecule, the “NOEL (No-Observable-Effect-Level)” value in [5] (setting [13]) is 100 mg/kg. In addition, the “dose levels without adverse toxicity” value in series [5] (setting [13]) was at most 600 mg/kg/day.
As to `CCNC(=O)Nc1nc2cc(-c3cnc(C(C)(C)OP(=O)([O-])[O-])nc3)c(F)c([C@H]3CCCO3)c2[nH]1.[Na+].[Na+]` [Compound W, disodium (R)-2-(5-(2-(3-ethylureido)-6-fluoro-7-(tetrahydrofuran-2-yl)-1H-benzo[d]imidazol-5-yl)pyrimidin-2-yl)propan-2-yl phosphate], the Cl_obs in series [1] (setting [6]) was found to be 46.7 mL/min/kg; in series [1] (setting [7]), 84.6 mL/min/kg. The Vss_obs is recorded as 0.38 L/kg in series [1] (setting [6]) and 5.8 L/kg in series [1] (setting [7]). In addition, the AUC in series [1] (setting [8]) came to 416 ng·h/mL; in series [1] (setting [9]), 419 ng·h/mL; in series [1] (setting [10]), 1110 ng·h/mL; in [1] (setting [11]), 1120 ng·h/mL; in series [2] (AUC) it was 5790 ng·h/mL; in [2] (AUCextrap), 5830 ng·h/mL. In the series with Enterococcus faecalis, this molecule gave an MIC of 1 µg/mL.
